Species: Rattus norvegicus
Assay: Open TG-GATES - Regimen: Single
Assay type: toxicity, organism-based, Sprague-Dawley
Set-up: regimen Single, gender Male, age 6 weeks
Conditions: in vivo, po, 6 mg/kg, route gavage, dose level Middle; for APTT / Bas / Eos / Fbg / Hb / Lym / MCH / MCHC / MCV / Mono / Neu / PT / Plat / RBC / Ret / WBC: tissue Blood; for KIDNEY_L / KIDNEY_R / KIDNEY_TOTAL: tissue Kidney; for LIVER: tissue Liver; for ALP / ALT / AST / BUN / CRE / Ca / Cl / DBIL / GLC / IP / K / LDH / Na / PL / RALB / TBIL / TC / TG / TP / gamma-GTP: tissue Plasma

OCCN1CCN(CCCN2c3ccccc3Sc3ccc(C(F)(F)F)cc32)CC1 [FLUPHENAZINE]
TERMINAL_BW (3 h): 196.9 g | APTT (3 h): 16 s | Bas (3 h): 0% | Eos (3 h): 0.6% | Fbg (3 h): 213.6 mg/dL | Hb (3 h): 12.8 g/dL | Lym (3 h): 75% | MCH (3 h): 21.2 pg | MCHC (3 h): 32.9% | MCV (3 h): 64.2 fL | Mono (3 h): 9.2% | Neu (3 h): 15.2% | PT (3 h): 12.5 s | Plat (3 h): 98.9 x10_4/uL | RBC (3 h): 607.8 x10_4/ul | Ret (3 h): 7.7% | WBC (3 h): 78.7 x10_2/uL | KIDNEY_L (3 h): 0.9 g | KIDNEY_R (3 h): 0.9 g | KIDNEY_TOTAL (3 h): 1.8 g | LIVER (3 h): 9.1 g | ALP (3 h): 915 IU/L | ALT (3 h): 35.8 IU/L | AST (3 h): 63.2 IU/L | BUN (3 h): 10 mg/dL | CRE (3 h): 0.5 mg/dL | Ca (3 h): 10.3 mg/dL | Cl (3 h): 105.4 meq/L | DBIL (3 h): 0.008 mg/dL | GLC (3 h): 191 mg/dL | IP (3 h): 10.4 mg/dL | K (3 h): 4.4 meq/L | LDH (3 h): 91.6 IU/L | Na (3 h): 138.2 meq/L | PL (3 h): 136.6 mg/dL | RALB (3 h): 3.6 g/dL | TBIL (3 h): 0.4 mg/dL | TC (3 h): 77.2 mg/dL | TG (3 h): 48 mg/dL | TP (3 h): 5.3 g/dL | gamma-GTP (3 h): 1.8 IU/L | TERMINAL_BW (6 h): 195.2 g | APTT (6 h): 16.4 s | Bas (6 h): 0% | Eos (6 h): 0.8% | Fbg (6 h): 211.6 mg/dL | Hb (6 h): 13.2 g/dL | Lym (6 h): 74.4% | MCH (6 h): 21.3 pg | MCHC (6 h): 32.8% | MCV (6 h): 64.9 fL | Mono (6 h): 9.4% | Neu (6 h): 15.8% | PT (6 h): 12.3 s | Plat (6 h): 113.8 x10_4/uL | RBC (6 h): 620.4 x10_4/ul | Ret (6 h): 8.6% | WBC (6 h): 89.6 x10_2/uL | KIDNEY_L (6 h): 0.9 g | KIDNEY_R (6 h): 0.9 g | KIDNEY_TOTAL (6 h): 1.8 g | LIVER (6 h): 8.8 g | ALP (6 h): 722.4 IU/L | ALT (6 h): 30 IU/L | AST (6 h): 56.2 IU/L | BUN (6 h): 10.4 mg/dL | CRE (6 h): 0.5 mg/dL | Ca (6 h): 10.2 mg/dL | Cl (6 h): 105.6 meq/L | DBIL (6 h): 0.014 mg/dL | GLC (6 h): 196 mg/dL | IP (6 h): 10.2 mg/dL | K (6 h): 4.7 meq/L | LDH (6 h): 90.8 IU/L | Na (6 h): 136 meq/L | PL (6 h): 144.4 mg/dL | RALB (6 h): 3.6 g/dL | TBIL (6 h): 0.4 mg/dL | TC (6 h): 84.6 mg/dL | TG (6 h): 26.8 mg/dL | TP (6 h): 5.3 g/dL | gamma-GTP (6 h): 1.4 IU/L | TERMINAL_BW (9 h): 194 g | APTT (9 h): 16.5 s | Bas (9 h): 0% | Eos (9 h): 0.6% | Fbg (9 h): 227 mg/dL | Hb (9 h): 13.2 g/dL | Lym (9 h): 79.2% | MCH (9 h): 22.1 pg | MCHC (9 h): 33.3% | MCV (9 h): 66.3 fL | Mono (9 h): 5.8% | Neu (9 h): 14.8% | PT (9 h): 12.5 s | Plat (9 h): 112.2 x10_4/uL | RBC (9 h): 598.2 x10_4/ul | Ret (9 h): 7.8% | WBC (9 h): 74.5 x10_2/uL | KIDNEY_L (9 h): 0.9 g | KIDNEY_R (9 h): 1 g | KIDNEY_TOTAL (9 h): 1.9 g | LIVER (9 h): 7.9 g | ALP (9 h): 730.2 IU/L | ALT (9 h): 30.4 IU/L | AST (9 h): 54.2 IU/L | BUN (9 h): 9.2 mg/dL | CRE (9 h): 0.5 mg/dL | Ca (9 h): 10.1 mg/dL | Cl (9 h): 106.2 meq/L | DBIL (9 h): 0.038 mg/dL | GLC (9 h): 189 mg/dL | IP (9 h): 10.5 mg/dL | K (9 h): 4.2 meq/L | LDH (9 h): 83.8 IU/L | Na (9 h): 138.4 meq/L | PL (9 h): 133.2 mg/dL | RALB (9 h): 3.7 g/dL | TBIL (9 h): 0.4 mg/dL | TC (9 h): 80.6 mg/dL | TG (9 h): 21.4 mg/dL | TP (9 h): 5.5 g/dL | gamma-GTP (9 h): 1.8 IU/L | TERMINAL_BW (24 h): 201.5 g | APTT (24 h): 16.7 s | Bas (24 h): 0% | Eos (24 h): 1.2% | Fbg (24 h): 208 mg/dL | Hb (24 h): 13.7 g/dL | Lym (24 h): 81.4% | MCH (24 h): 21.6 pg | MCHC (24 h): 33.2% | MCV (24 h): 64.9 fL | Mono (24 h): 9% | Neu (24 h): 8.6% | PT (24 h): 11.9 s | Plat (24 h): 112.8 x10_4/uL | RBC (24 h): 636 x10_4/ul | Ret (24 h): 7.3% | WBC (24 h): 85.5 x10_2/uL | KIDNEY_L (24 h): 0.9 g | KIDNEY_R (24 h): 0.9 g | KIDNEY_TOTAL (24 h): 1.8 g | LIVER (24 h): 9.6 g | ALP (24 h): 748.4 IU/L | ALT (24 h): 28.2 IU/L | AST (24 h): 56.6 IU/L | BUN (24 h): 23.8 mg/dL | CRE (24 h): 0.5 mg/dL | Ca (24 h): 11 mg/dL | Cl (24 h): 103.6 meq/L | DBIL (24 h): 0.03 mg/dL | GLC (24 h): 176.8 mg/dL | IP (24 h): 8 mg/dL | K (24 h): 5 meq/L | LDH (24 h): 90 IU/L | Na (24 h): 137.2 meq/L | PL (24 h): 154.6 mg/dL | RALB (24 h): 4.2 g/dL | TBIL (24 h): 0.3 mg/dL | TC (24 h): 84.4 mg/dL | TG (24 h): 94.4 mg/dL | TP (24 h): 6.1 g/dL | gamma-GTP (24 h): 1.2 IU/L

From ChEMBL document CHEMBL3885861, “Open TG-GATES”
